Structures are written as SMILES.

This assay deals with GFP-human Akt3 fusion protein. Kind of assay: Akt3/PKBγ Redistribution assay (inhibition of IGF-I-stimulated membrane translocation). The assay is classed as cell-based. Conditions: dose response fit of the estimated process coordinate, two-parameter formula, FIG. 15; IGF-I as reference agonist; read-out: Wortmannin concentration causing 50% changes (a). As to the method: The Akt3/PKBγ Redistribution® assay from BioImage (http://www.bioimage.com) monitors translocation of GFP-human Akt3 fusion protein from the cytoplasm to the plasma membrane. Insulin-like growth factor-I (IGF-I) is used as reference agonist, and compounds are assayed for their ability to inhibit IGF-I-stimulated membrane translocation of Akt3/PKBγ. In inhibited cells, fluorescence is quite evenly distributed in the cytoplasmic space. In activated cells, there are spots of high intensity on the membrane area. Exemplary images from negative and positive control samples are presented on FIG. 1. […] The measured profiles for a series of positive and negative control samples are presented on FIG. 10. […] The measured profiles aid us in deciding how many segments we create and where their borders are. […] On FIG. 12, mean intensities of the three segments are plotted as read out parameters from images of positive control samples (left) and negative control samples (right). […] It is a linear combination of original intensities determined from the condition given in Eq. 4. […]

As to `COC[C@H]1OC(=O)c2coc3c2[C@@]1(C)C1=C(C3=O)[C@@H]2CCC(=O)[C@@]2(C)C[C@H]1OC(C)=O` [Wortmannin, wortmannin], the IC50 is 36.4 ± 3 nM.

The values are drawn from patent US20100266191A1, “METHOD FOR QUANTIFYING AN UNDERLYING PROPERTY OF A MULTITUDE OF SAMPLES” (priority 2007, published 2010).
